Reference: patent publication US20240116946A1 (Gilead Sciences, Inc., priority 2022, published 2024)
Like-named read-outs stand apart in the source and are kept apart here.

Assays:
[1] = target: recombinant SARS-CoV-2 Main protease (Mpro) (Severe acute respiratory syndrome coronavirus 2 (2019-nCoV) (SARS-CoV-2), UniProt P0DTD1); test: Cov Mpro Biochemical IC50 Assay; settings: read-out: MPro IC50
SARS-CoV-2-NLuc = test: microbe, parasite or virus in culture; assay type: cell-based, SARS Coronavirus 2
[2] = recombinant SARS-CoV-2 Mpro 7.5 nM, fluorogenic peptide substrate 40 μM
[3] = Severe acute respiratory syndrome coronavirus, 48 h, read-out: MPro EC50
[4] = recombinant SARS-CoV-2 Mpro, fluorogenic peptide substrate
[5] = Severe acute respiratory syndrome coronavirus, 48 h; read-out: MPro EC50

SMILES | IC50 [1, 2] [nM] | EC50 (SARS-CoV-2-NLuc; [3]) [nM] | EC50 (SARS-CoV-2-NLuc; read-out: MPro EC50) [nM] | IC50 [1, 4] [nM] | EC50 (SARS-CoV-2-NLuc; [5]) [nM]
COc1cc(-c2cc3c(s2)c(=O)n(-c2cncc(F)c2C)c(=O)n3CCC#N)c(C#N)cc1F [Example 849] | 12.8 | 30.4 |  |  | 
COc1cc(-c2cc3c(s2)c(=O)n(-c2cncc4nn(C)c(C)c24)c(=O)n3CCC#N)c(Cl)cc1F (single isomer, unassigned) [Example 1041, 3-(6-(2-chloro-4-fluoro-5-methoxyphenyl)-3-(2,3-dimethyl-2H-pyrazolo[3,4-c]pyridin-4-yl)-2,4-dioxo-3,4-dihydrothieno[3,2-d]pyrimidin-1(2H)-yl)propanenitrile] | 2.99 |  | 5.72 |  | 
COc1cc(-c2cc3c(s2)c(=O)n(-c2cncc4cccc(C)c24)c(=O)n3CCC#N)c(Cl)cc1F (atropisomer, axis not shown) [Example 920] | 5.5 | 4.25 |  |  | 
O=C1NCCc2c1cccc2-c1cccc(Cl)c1-c1ccc2c(=O)n(-c3cncc4ccccc34)c(=O)[nH]c2c1 [Example 194] |  | 20.6 |  | < 2.54 | 
COc1cc(-c2cc3c(s2)c(=O)n(-c2cncc4cnn(C)c24)c(=O)n3CC2CCCN2C)c(Cl)cc1F (centres unmarked) [Example 1071] | 102 | 306 |  |  | 
COc1cccc(C#N)c1-c1cc2c(s1)c(=O)n(-c1cncc3ccccc13)c(=O)n2CCC#N [Example 820] | 5.73 | 32.9 |  |  | 
O=c1[nH]c2cc(-c3ccccc3Cl)sc2c(=O)n1-c1cncc2ccc(N3C[C@H]4C[C@@H]3CO4)cc12 [Example 394] | 5.1 | 5.75 |  |  | 
O=c1[nH]c2cc(-c3cc4c(cc3Cl)OCO4)sc2c(=O)n1-c1cncc2ccccc12 [Example 347] |  | 642 |  | 441 | 
COc1cc(-c2cc3c(s2)c(=O)n(-c2cncc4nccn24)c(=O)n3CCC#N)c(Cl)cc1F [Example 1000] | 10.6 | 20.1 |  |  | 
Cn1ncc2cncc(-n3c(=O)c4sc(-c5ccccc5C#N)cc4n(CCC#N)c3=O)c21 (single isomer, unassigned) [Example 962, 2-(1-(2-cyanoethyl)-3-(1-methyl-1H-pyrazolo[4,3-c]pyridin-7-yl)-2,4-dioxo-1,2,3,4-tetrahydrothieno[3,2-d]pyrimidin-6-yl)benzonitrile] | > 1000 |  | > 1000 |  | 
COc1cc(-c2cc3c(s2)c(=O)n(-c2cncc4cnn(C)c24)c(=O)n3CCC#N)c(C#N)cn1 [Example 776] | 233 | 578 |  |  | 
Cc1cncc(-n2c(=O)[nH]c3cc(-c4ccccc4Cl)sc3c2=O)c1C [Example 132] |  | 27.4 |  | 9.12 | 
COc1ccc(Cl)c(-c2cc3[nH]c(=O)n(-c4cncc5ncsc45)c(=O)c3s2)c1 [Example 485] | 9.6 | 62.6 |  |  | 
O=c1[nH]c2cc(-c3c(Cl)cccc3-c3cnn4c3COCC4)sc2c(=O)n1-c1cncc2ccccc12 [Example 523] | 4.05 | 5.79 |  |  | 
Cn1ncc2cncc(-n3c(=O)[nH]c4cc(-c5cc(F)ccc5C#N)sc4c3=O)c21 [Example 700] | 54.6 |  |  |  | 466
Cc1cc2ncnn2cc1-c1cc2[nH]c(=O)n(-c3cncc4ccccc34)c(=O)c2s1 [Example 15] |  | 25100 |  | 3970 | 
N#Cc1cncc(-c2cccc(Cl)c2-c2cc3[nH]c(=O)n(-c4cncc5ccccc45)c(=O)c3s2)c1 [Example 673] | 4.08 | 3.71 |  |  | 
N#CCCn1c(=O)n(-c2cncc3cccnc23)c(=O)c2sc(-c3ccccc3Cl)cc21 [Example 905] | 5.93 | 4.17 |  |  | 
Cc1c(Cl)cncc1-n1c(=O)c2sc(-c3cc(F)c(F)cc3Cl)cc2n(CCC#N)c1=O [Example 847] | 8.09 |  |  |  | 19.8
COc1ccc(Cl)c(-c2ccc3c(=O)n(-c4cncc5ccc(N6CC(OC)C6)cc45)c(=O)[nH]c3c2)c1 [Example 408] | 42.7 | 108 |  |  | 
CC(=O)N1CCN(c2ccc3cncc(-n4c(=O)[nH]c5cc(-c6ccccc6Cl)sc5c4=O)c3c2)CC1 [Example 387] |  | 30.3 |  | < 2.54 | 
COc1cc(-c2cc3[nH]c(=O)n(-c4cncc(C)c4C)c(=O)c3s2)c(Cl)cc1F [Example 747] | 4.63 | 4.19 |  |  | 
O=c1[nH]c2cc(-c3ccccc3Cl)sc2c(=O)n1-c1cnccc1N1CCNCC1 [Example 115, 6-(2-chlorophenyl)-3-(4-(piperazin-1-yl)pyridin-3-yl)thieno[3,2-d]pyrimidine-2,4(1H,3H)-dione] |  |  |  | 522 | 1530
O=c1[nH]c2cc(-c3ccccc3-c3ccccc3Cl)ccc2c(=O)n1-c1cncc2ccccc12 [Example 74, 7-(2′-chloro-[1,1′-biphenyl]-2-yl)-3-(isoquinolin-4-yl)quinazoline-2,4(1H,3H)-dione] |  | 711 |  | 470 | 
O=c1ccc2cncc(-n3c(=O)[nH]c4cc(-c5ccccc5Cl)sc4c3=O)c2[nH]1 [Example 452, 6-(2-chlorophenyl)-3-(2-oxo-1,2-dihydro-1,6-naphthyridin-8-yl)thieno[3,2-d]pyrimidine-2,4(1H,3H)-dione] | 9.24 | 82.5 |  |  | 

SMILES | IC50 [1, 2] [nM] | EC50 (SARS-CoV-2-NLuc; [3]) [nM] | EC50 (SARS-CoV-2-NLuc; read-out: MPro EC50) [nM] | IC50 [1, 4] [nM] | EC50 (SARS-CoV-2-NLuc; [5]) [nM]
COc1ccc(C#N)c(-c2cc3[nH]c(=O)n(-c4cncc5c4CCCO5)c(=O)c3s2)c1 [Example 598] | 29.6 | 150 |  |  | 
O=c1[nH]c2cc(-c3c(Cl)cccc3CC3CCOCC3)sc2c(=O)n1-c1cncc2ccccc12 [Example 561, 6-[2-chloro-6-(tetrahydropyran-4-ylmethyl)phenyl]-3-(4-isoquinolyl)-1H-thieno[3,2-d]pyrimidine-2,4-dione] | 142 | 177 |  |  | 
COc1cc(-c2cc3[nH]c(=O)n(-c4cncc5c(C#N)nn(C)c45)c(=O)c3s2)c(Cl)cc1F [Example 977] | 21.2 | 101 |  |  | 
COc1cnc(Cl)c(-c2cc3[nH]c(=O)n(-c4cncc5cnn(C)c45)c(=O)c3s2)c1 [Example 668] | 23 | 123 |  |  | 
COc1nn(C)cc1-c1cccc(Cl)c1-c1ccc2c(=O)n(-c3cncc4ccccc34)c(=O)[nH]c2c1 [Example 273] |  | 6.41 |  | 14.9 | 
COCCn1c(=O)n(-c2cncc3cnn(C)c23)c(=O)c2sc(-c3cc(OC)c(F)cc3Cl)cc21 [Example 1069] | 38.9 | 130 |  |  | 
Cc1ccc(C#N)c(-c2cc3c(s2)c(=O)n(-c2cncc4cnn(C)c24)c(=O)n3CCC#N)c1 [Example 784] | 10.8 | 47.1 |  |  | 
COc1cc(-c2cc3c(s2)c(=O)n(-c2cncc4cnn(C)c24)c(=O)n3CCO)c(Cl)cc1F [Example 1070] | 19.8 | 30.8 |  |  | 
COc1ccc(C#N)c(-c2cc3[nH]c(=O)n(-c4cncc5cnccc45)c(=O)c3s2)c1 [Example 583] | 20.9 | 227 |  |  | 
COc1cc(-c2cc3c(s2)c(=O)n(-c2cncc4ccccc24)c(=O)n3CC(C)C#N)c(Cl)cc1F (centres unmarked) [Example 1096, 3-(6-(2-chloro-4-fluoro-5-methoxyphenyl)-3-(isoquinolin-4-yl)-2,4-dioxo-3,4-dihydrothieno[3,2-d]pyrimidin-1(2H)-yl)-2-methylpropanenitrile] | 10.4 |  |  |  | 15.9
COc1cc(-c2cc3c(s2)c(=O)n(-c2cncc4ccccc24)c(=O)n3Cc2cc(F)c(F)c(F)c2)c(Cl)cc1F [Example 1099, 6-(2-chloro-4-fluoro-5-methoxy-phenyl)-3-(4-isoquinolyl)-1-[(3,4,5-trifluorophenyl)methyl]thieno[3,2-d]pyrimidine-2,4-dione] | 388 |  |  |  | 921
COc1cc(-c2cc3[nH]c(=O)n(-c4cncc5cccc(F)c45)c(=O)c3s2)c(Cl)cc1F (single isomer, unassigned) [Example 900, 6-(2-chloro-4-fluoro-5-methoxyphenyl)-3-(5-fluoroisoquinolin-4-yl)thieno[3,2-d]pyrimidine-2,4(1H,3H)-dione] | 334 |  | 172 |  | 
Cc1ccncc1-n1c(=O)[nH]c2cc(-c3ccccc3Cl)ccc2c1=O [Example 121, 7-(2-chlorophenyl)-3-(4-methylpyridin-3-yl)quinazoline-2,4(1H,3H)-dione] |  | 1150 |  | 708 | 
COc1ccc2cncc(-n3c(=O)[nH]c4cc(-c5ccccc5Cl)ccc4c3=O)c2c1 [Example 237] |  | 143 |  | 87 | 
COc1cc(-c2cc3c(s2)c(=O)n(-c2cccnn2)c(=O)n3CCC#N)c(Cl)cc1F [Example 989] | 7.31 | 19.6 |  |  | 
Cc1cc(-c2cccc(Cl)c2-c2ccc3c(=O)n(-c4cncc5ccccc45)c(=O)[nH]c3c2)cnn1 [Example 234] |  | 21.2 |  | < 5.67 | 
Cn1cc(-c2cccc(Cl)c2-c2ccc3c(=O)n(-c4cncc5ccccc45)c(=O)[nH]c3c2)c(C2CC2)n1 [Example 262] |  | < 4.41 |  | 6.12 | 
COc1cc(-c2cc3c(s2)c(=O)n(-c2cncc4cccnc24)c(=O)n3CC2(C#N)CC2)c(Cl)cc1F [Example 709] | 6.21 | 2.09 |  |  | 
O=c1[nH]c2cc(-c3c(Cl)cccc3-c3cnn4c3COCC4)ccc2c(=O)n1-c1cncc2ccccc12 [Example 305] |  | 12.8 |  | 8.8 | 
O=c1[nH]c2cc(-c3ccccc3Cl)ccc2c(=O)n1-c1cccnc1 [Example 122] |  | 3910 |  | 1010 | 
O=c1[nH]c2cc(-c3c(Cl)cccc3-c3ccnnc3)sc2c(=O)n1-c1cncc2ccccc12 [Example 112] |  | 39.2 |  | 5.19 | 
COc1cc(-c2cc3c(s2)c(=O)n(-c2cncc4cn[nH]c24)c(=O)n3CCC#N)c(Cl)cc1F [Example 1047] | 5.53 | 12.4 |  |  | 
COCCNc1ccc2cncc(-n3c(=O)[nH]c4cc(-c5ccccc5Cl)sc4c3=O)c2c1 [Example 403] | 6.9 | 11.1 |  |  | 
Cc1ncccc1-c1ccc2c(=O)n(-c3cncc4ccccc34)c(=O)[nH]c2c1 [Example 63] |  | 8440 |  | 5850 | 
